We go through one compound from patent US8901105B2, “Prodrug derivatives of (E)-N-methyl-N-((3-M ethylbenzofuran-2-yl)methyl)-3-(7-oxo-5,6,7,8-tetrahydro-1,8-naphthyridin-3-yl)acrylamide” (Affinium Pharmaceuticals, Inc., priority 2012, dated 2014).

The nature of the series: XRPD crystal form after storage. Type of series: physicochemical. The note with it: after 3 months at all conditions. How it is done: Various compounds disclosed herein have been placed on long-term solid-state stability protocol. The compounds were stored in glass vials closed with PTFE lined caps at 30° C./65% RH, 40° C./75% RH, 50° C. and 60° C. (ambient humidity). The results of the study after 4 weeks are shown in Table B1 and after 3 months in Table B2. Appearance and purity analysis were conducted using HPLC and XPRD. The HPLC analyses were conducted using standard equipment such as a Agilent HP1100 HPLC (Station ID: LZPES HPLC 04) with YMC-Pack ODS-AQ sub 3 μm, 150×4.6 mm Samples were prepared for XRPD by sprinkling ˜20 mg onto a Si wafer zero background plate and pressing the material flat to ensure the surface is smooth and level. The samples were analyzed according the equipment parameters below.

Where a name gives a salt, the structure may show the parent alone.

On to `Cc1c(CN(C)C(=O)/C=C/c2cnc3c(c2)CCC(=O)N3COP(=O)(O)O)oc2ccccc12` [Compound 10, (E)-6-[(N-methyl-((3-methylbenzofuran-2-yl)methyl)amino)-3-oxoprop-1-en-1-yl)-2-oxo-3,4-dihydro-1,8-naphthyridin-1(2H)-yl]methylphosphate bis-ethanolammonium salt], for which the “change in crystal form (XRPD)” value is given as “no change in crystal form”.
